Source: patent publication US10214507B2, “Carbazole-containing amides, carbamates, and ureas as cryptochrome modulators” (Reset Therapeutics, Inc., priority 2014, dated 2019)
Like-named read-outs stand apart in the source and are kept apart here.

Assays:
[1] = test system: core clock gene mRNAs in mouse liver; experiment: Core clock gene mRNAs in liver after a single dose at peak or nadir of Cry1 expression; format: in vivo; settings: single dose 50 mg/kg, liver 7.5 hours later
Procedure: For compounds that interact directly with the core clock mechanism, the time of dosing may be critical for maximizing their effects. […] The former (ZTO) is coincident with the peak of Cry1 and Bmal1 protein in mouse liver and the latter (ZT10) corresponds to the approximate nadir of Cry1 and Bmal1. Liver tissue was taken 7.5 hours later for each, and the samples were examined for core clock gene mRNAs by RT-qPCR.

[2] = test system: cortisone-induced insulin resistance in Sprague Dawley rats; experiment: Cortisone induced insulin resistance in rats; format: in vivo, rat; settings: cortisone 30 mg/kg sc + 50 mg/kg po
Procedure: Animals were dosed with cortisone (30 mg/kg sc qd) in combination with test compounds for 6 days and then terminated 27 hours after the final dose of cortisone. A reference standard (Mifepristone) was also included. Cortisone 21-acetate (Sigma C-3130) was supplied by RenaSci and administered using a dose volume of 5 ml/kg via the subcutaneous route as a fine suspension in 1% methylcellulose. […] Mifepristone (Sigma M8046) was provided by RenaSci.
Glucose and insulin determinations were performed on plasma samples obtained from a tail vein bleed taken after a 12 h fast, approximately 27 h after the last cortisone dose. Animals were then terminated and a terminal (cardiac) blood sample taken from which plasma was prepared.
Thirty four male Sprague Dawley rats (weight range 200-250 g) were ordered from Charles River, Margate, Kent, UK. […] Subsequently, animals underwent a 3 day baseline period during which they were dosed once daily with vehicle at t=0 h (07:00). […] Body weight was recorded immediately before dosing began at 07:00 (t=0 h).
On Day 6 of dosing rats were fasted for 12 h beginning at 22:30 (timed to coincide with the Day 7 termination). […] At 10:30 on Day 7, 27 h after the final dose of cortisone, a blood sample (300 μl) was taken from the lateral tail vein into tubes containing EDTA (Sarstedt 16.444). The blood was centrifuged and resultant plasma aliquot stored at −75° C. The animals were euthanized by CO2 asphyxiation followed by cervical dislocation. Terminal blood (approximately 10 ml) was collected by cardiac puncture into tubes containing EDTA (Sarstedt 5 ml 32.332) and then centrifuged and plasma stored at −75° C. The tail vein plasma was analyzed for glucose (n=2) using a commercial clinical reagent (Thermoelectron Infinity glucose reagent (TR15421) and for insulin (n=1) using the Mercodia ultrasensitive rat insulin rat ELISA (10-1251-10).
Plasma glucose and insulin were analyzed by robust regression or general linear model with treatment as a factor and bleeding order and baseline body weight as covariates. A log transformation was used if appropriate. Appropriate multiple comparison tests (two-tailed) were used to determine significant differences from the vehicle group and from the Cortisone group. P<0.05 was considered to be statistically significant.

[3] = Pharmacokinetic analysis in SD rats (plasma, LC/MS/MS); format: in vivo, rat; settings: 50 mg/kg P.O.; for Cmax: plasma, 50 mg/kg
Procedure: Male SD rats (weighing 250-300 g, Charles River Laboratories) were used for the experiment with n=4 rats for each experimental group. […] Blood was collected at the following time points after administration: 15, 30, 60, 90 minutes, 3, 6, 12 and 24 hours. A pre-dose sample was also collected. Animals were cannulated by technical staff at Charles River, prior to delivery at Reset. Whole blood (0.3 ml) was collected from a cannula in the right common jugular vein at each time-point. The whole blood was transferred to an EDTA tube, and then centrifuged at 5400 rpm for 5 minutes at 4° C. The resultant plasma was frozen using dry ice and then stored at −80° C. until ready for assay. 0.9% Sodium Chloride (0.3 ml) was administered for fluid replenishment after each blood draw. 0.1 ml of Sodium Heparin (500 IU/ml) was used as a lock solution after the 12 hr time-point. Samples were assayed as described above.

## O=C1NCCN1CC(O)Cn1c2ccc(F)cc2c2cc(F)ccc21 (stereo not shown) [Compound 72, 1-(3-(3,6-difluoro-9H-carbazol-9-yl)-2-hydroxypropyl)imidazolidin-2-one]
[1]
  impact on clock mRNAs, dosing at peak (ZT0) vs nadir (ZT10): greater relative impact on the clock mRNAs at the peak compared to the nadir
[2]; insulin resistant rats
  HOMA-IR: 56.94+/−11.18 units
[2]; rats
  fasted plasma glucose: 8.55 ± 0.3 mM
  fasted plasma insulin: 5.24 ± 1.1 ng/mL
[3]; male, SD, po, rat plasma
  Tmax: 1.7 h
[3]; male, SD, po, rat plasma, read-out: Elimination T1/2 (converted)
  half-life: 1.87 h
[3]; male, SD, po, rat plasma, read-out: MRT (0-last, hr)
  MRT last: 4.94 h
[3]; male, SD, rat, po, rat plasma, read-out: Cmax
  Cmax: 7100 ng/mL
[3]; male, SD, rat, po, rat, read-out: Cmax (plasma)
  Cmax: 7100 ng/mL
[3]; male, SD, rat, po, rat, unbound, read-out: Cmax UB (plasma)
  Cmax: 277 ng/mL
[3]; rat plasma
  % AUC extrapolated: 3.3%
  AUC (total; ng · hr/mL): 57952 ng·h/mL
[3]; rat
  Unbound Plasma AUC (0-last): 2259
